Holding throughout (test): inhibition of tumour cell growth, NCI panel, 48 h
Assay [1] concerns UACC-62.
Assay [2] has as its system SK-OV-3.
Assay [3] has as its system Hs-578T.
For assay [4], the system named is MDA-N.
For assay [5], the system named is RXF 393.
Assay [6] relates to KM12.
Assay [7] relates to A498.
Assay [8] deals with 786-0.
Assay [9] concerns MDA-MB-435.
Assay [10] has as its system SK-MEL-28.
Assay [11] concerns MDA-MB-231.
For assay [12], the system named is CCRF-CEM.
Assay [13] relates to NCI/ADR-RES.
The subject of assay [14] is MCF7.
Assay [15] relates to M14.
Assay [16] deals with KM-20L2.
Assay [17] relates to DMS-273.
Assay [18] concerns DLD-1.
The test system of assay [19] is LXFL 529.
In assay [20] the test system is XF498.

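Exposure lasted 48 hours, with cells grown in 96-well plates and compounds tested at five concentrations. Abbreviation: GI50, concentration required for 50% inhibition of growth.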 Activity calls are given as the source filed them. Rule as the data show it: active = GI50 up to about 1.1 µM and inactive = higher.

For `N#CC1=C(N)N(c2ccccc2)C(c2ccco2)C1(C#N)C#N` (stereo unspecified), the GI50 is 23.2 µM (inactive) in [1]; 77.8 µM (inactive) in assay [2]; 36.6 µM (inactive) in assay [3]; 27.8 µM (inactive) in assay [4]; 17.5 µM (inactive) in assay [5]; 17.4 µM (inactive) in [6]. Further, the GI50 in [7] was 21.8 µM (inactive); in assay [8] it was 17.5 µM (inactive); in assay [9] it was 28.4 µM (inactive); in assay [10] it was 17.9 µM (inactive); in assay [11] it was 15.3 µM (inactive); in assay [12], 14.3 µM (inactive). Also, the results for the GI50 in assay [13], in [14] and in assay [15] were 27 µM (inactive), 17.4 µM (inactive) and 20.6 µM (inactive), respectively.
In the case of `CC(C)(C)OC(=O)NCC(=O)NC1c2ccsc2/C(=N/O)[C@H]1O` (stereo partly specified), the GI50 in assay [1], in [2], in [4], in [5], in assay [7] and in [9] was > 100 µM (inactive) throughout. The GI50 in [10], in [11], in [12], in assay [13], in assay [14] and in assay [15] was > 100 µM (inactive) each time.
For the compound `Cc1c2c(c(C)n1-c1ccccc1)C(=O)N(CCN1CCN(c3cccc(C(F)(F)F)c3)CC1)C2=O`, the GI50 in assay [1] is > 100 µM (inactive); in assay [2], > 100 µM (inactive); in [3] it was > 100 µM (inactive); in assay [4], 71.1 µM (inactive); in assay [5], > 100 µM (inactive); in [6], 30.5 µM (inactive). Moreover, the GI50 in [7] is > 100 µM (inactive); in [8], 71.8 µM (inactive); in assay [9], > 100 µM (inactive); in [11], > 100 µM (inactive); in assay [13] it was 59.4 µM (inactive); in assay [14] it was 7.71 µM (inactive). Further, the GI50 in [15] is > 100 µM (inactive).
As to `O=C1c2ccccc2OCC12OC21C=CC(Cl)=CC1` (stereo unspecified), the GI50 in assay [1] is 27.3 µM (inactive); in [2] it was 51.8 µM (inactive); in assay [4] it was 17 µM (inactive); in [5], 24.9 µM (inactive); in [6], 17.6 µM (inactive); in [7] it was 20.7 µM (inactive). The GI50 was 20.1 µM (inactive) in assay [9]; 28.4 µM (inactive) in [10]; 22 µM (inactive) in [11]; 22.5 µM (inactive) in [13]; 33.4 µM (inactive) in [14]; 33.5 µM (inactive) in assay [15].
For `CSc1nc(N)c2c(-c3ccccc3)c3c(nc2n1)CCCC3`, the GI50 was > 100 µM (inactive) in assay [1]; 87.7 µM (inactive) in assay [2]; 21.5 µM (inactive) in assay [3]; > 100 µM (inactive) in [4]; 29.7 µM (inactive) in assay [5]; > 100 µM (inactive) in assay [6]. The GI50 is > 100 µM (inactive) in assay [9]; > 100 µM (inactive) in [10]; > 100 µM (inactive) in assay [11]; > 100 µM (inactive) in [12]; 33 µM (inactive) in assay [13]; > 100 µM (inactive) in assay [14]. For the same compound, the GI50 in assay [15] is > 100 µM (inactive).
For `O=C(NO)c1coc2ccccc2c1=O`, the GI50 in [1] was > 100 µM (inactive); in assay [16], > 100 µM (inactive); in assay [2], 12.3 µM (inactive); in assay [17], > 100 µM (inactive); in [18], > 100 µM (inactive); in assay [19] it was > 100 µM (inactive). Also, the GI50 in assay [5] was 72.9 µM (inactive); in assay [6] it was > 100 µM (inactive); in assay [7], 43.2 µM (inactive); in assay [10], > 100 µM (inactive); in assay [12], > 100 µM (inactive); in assay [15], 67.9 µM (inactive).
As for `COc1ccc(-c2nnc(-c3ccncc3)o2)cc1`, the GI50 in [1], in assay [2], in assay [3], in [4], in assay [5] and in [7] was > 100 µM (inactive) each time. Moreover, the GI50 in assay [8], in assay [9], in assay [10], in assay [11], in assay [12] and in [13] was > 100 µM (inactive) in each case. Further, the GI50 in assay [14] and in assay [15] was > 100 µM (inactive) throughout.
Consider `CC(=C/c1ccccc1)/C=C1/NC(=S)N(/C=C2\C(=O)Oc3ccccc3C2=O)C1=O`, for which the GI50 was 96.6 µM (inactive) in assay [4]; 0.0664 µM (active) in [5]; 27.5 µM (inactive) in assay [6]; 56.4 µM (inactive) in [7]; 45.1 µM (inactive) in assay [9]; 52.1 µM (inactive) in assay [10]. In addition, the GI50 was 45.9 µM (inactive) in assay [11]; 33.8 µM (inactive) in assay [12]; 42.2 µM (inactive) in assay [13]; 39.7 µM (inactive) in assay [14]; 54 µM (inactive) in assay [15].
For `CC(=O)ON1C(=O)c2cccc3cccc(c23)C1=O`, the GI50 in assay [1] is 19.9 µM (inactive); in assay [2], 34.4 µM (inactive); in assay [3] it was 23.6 µM (inactive); in [4], 18.3 µM (inactive); in assay [5], 7.23 µM (inactive); in assay [6], 14.6 µM (inactive). In addition, the GI50 in assay [7] is 25.8 µM (inactive); in [9], 14.7 µM (inactive); in [10] it was 17.9 µM (inactive); in [11], 29 µM (inactive); in assay [12], 9.66 µM (inactive); in assay [13], 34.3 µM (inactive). The results for the GI50 in [14] and in [15] were 16 µM (inactive) and 21.6 µM (inactive), respectively.
Take `COc1cc([N+](=O)[O-])ccc1NC(=O)c1cccc([N+](=O)[O-])c1O`: the GI50 in assay [1] was 9.2 µM (inactive); in assay [16] it was 27.5 µM (inactive); in assay [2], 23.1 µM (inactive); in assay [18] it was 16.1 µM (inactive); in assay [19] it was 21.3 µM (inactive); in [6], 29.5 µM (inactive). Besides, the GI50 in assay [7] was 17.9 µM (inactive); in assay [10], 21.6 µM (inactive); in assay [12], 23.2 µM (inactive); in assay [15], 45 µM (inactive).
With `O=C1c2ccccc2N1C(=O)c1ccccc1[N+](=O)[O-]`, the GI50 in assay [1] was > 100 µM (inactive); in [2] it was > 100 µM (inactive); in assay [3], 56.1 µM (inactive); in assay [4], 74.6 µM (inactive); in assay [6] it was 50 µM (inactive); in assay [7], > 100 µM (inactive). For the same compound, the GI50 in [8] was 57 µM (inactive); in assay [9], > 100 µM (inactive); in [10], > 100 µM (inactive); in assay [12], 48.9 µM (inactive); in [14], 97.1 µM (inactive); in assay [15] it was 59.7 µM (inactive).
Take `CN(C)c1nc(N(C)C)nc(N(C)CN(C)c2ccccc2)n1`: the GI50 in assay [1], in assay [2], in assay [19], in assay [5], in assay [6] and in assay [10] was > 100 µM (inactive) each time. In addition, the GI50 in [20] and in assay [12] was > 100 µM (inactive) throughout.
On to `CCN(/N=C1\CC2C=CCN(C2)C(=O)Cc2c1[nH]c1ccccc21)S(=O)(=O)c1ccc(C)cc1` (stereo unspecified), for which the GI50 in assay [1] is 38.8 µM (inactive); in [16] it was 64.1 µM (inactive); in [17], 62.4 µM (inactive); in assay [18], 53.3 µM (inactive); in assay [6], 69.8 µM (inactive); in assay [8], > 100 µM (inactive). The GI50 in [20] and in assay [12] was > 100 µM (inactive) in each case.
Turning to `O=C1OC(c2ccc(O)c(F)c2)(c2ccc(O)c(F)c2)c2cccc3cccc1c23`, the GI50 was 17.5 µM (inactive) in [1]; > 25 µM (inactive) in [2]; 2.03 µM (inactive) in assay [3]; 15.6 µM (inactive) in assay [4]; > 25 µM (inactive) in assay [5]; > 25 µM (inactive) in assay [6]. Further, the GI50 is > 25 µM (inactive) in assay [7]; > 25 µM (inactive) in [9]; 0.0643 µM (active) in assay [10]; > 25 µM (inactive) in [11]; > 25 µM (inactive) in assay [12]; 24.7 µM (inactive) in assay [13]. Moreover, the GI50 in assay [14] is 1.79 µM (inactive); in [15] it was > 25 µM (inactive).
On to `Cc1ccc(NC(=O)c2cccc([N+](=O)[O-])c2O)c(C)c1`, for which the GI50 in [1] was 4.03 µM (inactive); in [16], 21.5 µM (inactive); in assay [2], 22.9 µM (inactive); in assay [18] it was 14.3 µM (inactive); in assay [19], 14.7 µM (inactive); in [6] it was 27.7 µM (inactive). Besides, the GI50 is 12.9 µM (inactive) in assay [7], 6.97 µM (inactive) in assay [10], 17.9 µM (inactive) in [12] and 36.6 µM (inactive) in [15].
As for `NC(=O)Oc1ccccc1` [CARBAMIC ACID PHENYL ESTER], the GI50 in [2], in assay [3], in [4], in assay [5], in assay [6] and in assay [7] was > 100 µM (inactive) each time. For the same compound, the GI50 in assay [9], in assay [10], in [11], in assay [12], in assay [13] and in assay [14] was > 100 µM (inactive) in each case. Moreover, in [15], the GI50 was > 100 µM (inactive).
